How the values were obtained:
Assay in all cases: Test B pre-/postemergence plant response
Assay type in all cases: in vivo
[1] = tested on: morningglory (Ipomoea coccinea)
Summary of the method: (§1)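 Steps: sow seed in loam–sand soil and spray preemergence, or grow plants in peat-based medium to 1–4 leaves (2–18 cm) and spray postemergence; formulation is non-phytotoxic solvent plus surfactant; hold in greenhouse 13–15 days; score visually vs controls, 0 = no effect, 100 = complete control.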

[2] = tested on: yellow nutsedge (Cyperus esculentus)
Summary of the method: as §1

[3] = tested on: blackgrass (Alopecurus myosuroides)
Summary of the method: as §1

[4] = tested on: giant foxtail (Setaria faberii)
Summary of the method: as §1

[5] = tested on: bermudagrass (Cynodon dactylon)
Summary of the method: as §1

[6] = tested on: downy bromegrass (Bromus tectorum)
Summary of the method: as §1

[7] = tested on: Italian ryegrass (Lolium multiflorum)
Summary of the method: as §1

[8] = tested on: Surinam grass (Brachiaria decumbens)
Summary of the method: as §1

[9] = tested on: woolly cupgrass (Eriochloa villosa)
Summary of the method: as §1

corn (Zea mays) = tested on: corn (Zea mays)
Summary of the method: as §1

[10] = tested on: green foxtail (Setaria viridis)
Summary of the method: as §1

[11] = tested on: lambsquarters (Chenopodium album)
Summary of the method: as §1

[12] = tested on: large crabgrass (Digitaria sanguinalis)
Summary of the method: as §1

[13] = Postemergence, 125 g ai/ha, visual rating after 13 to 15 days, scale 0 (no effect) to 100 (complete control)
[14] = Postemergence, 250 g ai/ha, scale 0 to 100 (0 no effect, 100 complete control)
[15] = Preemergence, 31 g ai/ha, scale 0 to 100 (0 no effect, 100 complete control)
[16] = Preemergence, 62 g ai/ha, scale 0 to 100 (0 no effect, 100 complete control)
[17] = Preemergence, 125 g ai/ha, scale 0 to 100, 0 no effect, 100 complete control
[18] = 31 g ai/ha, postemergence, scale 0 to 100, 0 is no effect, 100 is complete control
[19] = Postemergence, 62 g ai/ha, scale 0 (no effect) to 100 (complete control), 13 to 15 days
[20] = 250 g ai/ha, Preemergence, 0 to 100 scale

O=C1CCCC(O)=C1C(=O)c1cnc(-c2ccsc2)n(-c2ccccc2)c1=O [Compound 56]
Plant response rating, Morningglory [1, 13]: 100
Plant response rating, Morningglory [1, 14]: 100
Plant response rating, Morningglory [1, 15]: 0
Plant response rating, Morningglory [1, 16]: 0
Plant response rating, Morningglory [1, 17]: 45
Plant response rating, Nutsedge, Yellow [2, 18]: 20
Plant response rating, Nutsedge, Yellow [2, 19]: 70
Plant response rating, Nutsedge, Yellow [2, 13]: 75
Plant response rating, Nutsedge, Yellow [2, 14]: 75
Plant response rating, Nutsedge, Yellow [2, 15]: 20
Plant response rating, Nutsedge, Yellow [2, 16]: 80
Plant response rating, Nutsedge, Yellow [2, 17]: 85
Plant response rating, Blackgrass [3, 18]: 0
Plant response rating, Blackgrass [3, 20]: 5
Plant response rating, Blackgrass [3, 19]: 10
Plant response rating, Blackgrass [3, 13]: 20
Plant response rating, Blackgrass [3, 14]: 20
Plant response rating, Blackgrass [3, 15]: 0
Plant response rating, Blackgrass [3, 16]: 0
Plant response rating, Blackgrass [3, 17]: 0
Plant response rating, Foxtail, Giant [4, 18]: 75
Plant response rating, Foxtail, Giant [4, 20]: 80
Plant response rating, Foxtail, Giant [4, 19]: 80
Plant response rating, Foxtail, Giant [4, 13]: 85
Plant response rating, Foxtail, Giant [4, 14]: 95
Plant response rating, Foxtail, Giant [4, 15]: 0
Plant response rating, Foxtail, Giant [4, 16]: 40
Plant response rating, Foxtail, Giant [4, 17]: 75
Plant response rating, Bermudagrass [5, 18]: 75
Plant response rating, Bermudagrass [5, 20]: 100
Plant response rating, Bermudagrass [5, 19]: 85
Plant response rating, Bermudagrass [5, 13]: 100
Plant response rating, Bermudagrass [5, 14]: 100
Plant response rating, Bermudagrass [5, 15]: 98
Plant response rating, Bermudagrass [5, 16]: 100
Plant response rating, Bermudagrass [5, 17]: 100
Plant response rating, Bromegrass, Downy [6, 18]: 35
Plant response rating, Bromegrass, Downy [6, 20]: 5
Plant response rating, Bromegrass, Downy [6, 19]: 45
Plant response rating, Bromegrass, Downy [6, 13]: 50
Plant response rating, Bromegrass, Downy [6, 14]: 60
Plant response rating, Bromegrass, Downy [6, 15]: 0
Plant response rating, Bromegrass, Downy [6, 16]: 0
Plant response rating, Bromegrass, Downy [6, 17]: 0
Plant response rating, Ryegrass, Italian [7, 18]: 0
Plant response rating, Ryegrass, Italian [7, 19]: 0
Plant response rating, Ryegrass, Italian [7, 13]: 50
Plant response rating, Ryegrass, Italian [7, 14]: 50
Plant response rating, Ryegrass, Italian [7, 15]: 0
Plant response rating, Ryegrass, Italian [7, 16]: 0
Plant response rating, Ryegrass, Italian [7, 17]: 0
Plant response rating, Surinam Grass [8, 18]: 75
Plant response rating, Surinam Grass [8, 19]: 80
Plant response rating, Surinam Grass [8, 13]: 85
Plant response rating, Surinam Grass [8, 14]: 100
Plant response rating, Surinam Grass [8, 15]: 55
Plant response rating, Surinam Grass [8, 16]: 95
Plant response rating, Surinam Grass [8, 17]: 98
Plant response rating, Cupgrass, Woolly [9, 18]: 15
Plant response rating, Cupgrass, Woolly [9, 20]: 70
Plant response rating, Cupgrass, Woolly [9, 19]: 45
Plant response rating, Cupgrass, Woolly [9, 13]: 65
Plant response rating, Cupgrass, Woolly [9, 14]: 85
Plant response rating, Cupgrass, Woolly [9, 15]: 0
Plant response rating, Cupgrass, Woolly [9, 16]: 20
Plant response rating, Cupgrass, Woolly [9, 17]: 50
Plant response rating, Corn (corn (Zea mays); [18]): 45
Plant response rating, Corn (corn (Zea mays); [20]): 0
Plant response rating, Corn (corn (Zea mays); [19]): 65
Plant response rating, Corn (corn (Zea mays); [13]): 65
Plant response rating, Corn (corn (Zea mays); [14]): 70
Plant response rating, Corn (corn (Zea mays); [15]): 0
Plant response rating, Corn (corn (Zea mays); [16]): 0
Plant response rating, Corn (corn (Zea mays); [17]): 0
Plant response rating, Foxtail, Green [10, 18]: 80
Plant response rating, Foxtail, Green [10, 20]: 100
Plant response rating, Foxtail, Green [10, 19]: 85
Plant response rating, Foxtail, Green [10, 13]: 98
Plant response rating, Foxtail, Green [10, 14]: 100
Plant response rating, Foxtail, Green [10, 15]: 0
Plant response rating, Foxtail, Green [10, 16]: 20
Plant response rating, Foxtail, Green [10, 17]: 20
Plant response rating, Lambsquarters [11, 18]: 98
Plant response rating, Lambsquarters [11, 20]: 98
Plant response rating, Lambsquarters [11, 19]: 98
Plant response rating, Lambsquarters [11, 13]: 100
Plant response rating, Lambsquarters [11, 14]: 100
Plant response rating, Lambsquarters [11, 15]: 95
Plant response rating, Lambsquarters [11, 16]: 98
Plant response rating, Lambsquarters [11, 17]: 98
Plant response rating, Crabgrass, Large [12, 18]: 75
Plant response rating, Crabgrass, Large [12, 20]: 98
Plant response rating, Crabgrass, Large [12, 19]: 85
Plant response rating, Crabgrass, Large [12, 13]: 90
Plant response rating, Crabgrass, Large [12, 14]: 95
Plant response rating, Crabgrass, Large [12, 15]: 80
Plant response rating, Crabgrass, Large [12, 16]: 85
Plant response rating, Crabgrass, Large [12, 17]: 98

— patent US8952024B2, “Herbicidal pyrimidone derivatives” (E I du Pont de Nemours and Company, priority 2009, dated 2015)
